# Test results from ChEMBL document CHEMBL5214920, “Emerging impact of triazoles as anti-tubercular agent” (Eur J Med Chem, 2022).
# What was measured:
# [1] = tested on: Mycobacterium tuberculosis; assay: Antitubercular activity against Mycobacterium tuberculosis H37Rv assessed as bacterial growth inhibition by micro broth dilution assay; format: functional
# [2] = tested on: Mycobacterium tuberculosis; assay: Antitubercular activity against Mycobacterium tuberculosis H37Rv assessed as bacterial growth inhibition measured after 7 days by broth microdilution assay; format: functional; settings: 168 h, time 7 day
# [3] = tested on: Mycobacterium tuberculosis; assay: Antitubercular activity against Mycobacterium tuberculosis H37Rv ATCC 27294 assessed as bacterial growth inhibition measured after 48 hrs by broth dilution method; format: functional
# [4] = tested on: Mycobacterium tuberculosis; assay: Antitubercular activity against Mycobacterium tuberculosis spec. 210 assessed as bacterial growth inhibition; format: functional
# [5] = tested on: Mycobacterium tuberculosis; assay: Antitubercular activity against Mycobacterium tuberculosis spec. 192 assessed as bacterial growth inhibition; format: functional
# [6] = tested on: Mycobacterium tuberculosis; assay: Antitubercular activity against Mycobacterium tuberculosis H37Rv ATCC 25618 assessed as bacterial growth inhibition; format: functional
# [7] = tested on: Mycobacterium tuberculosis; assay: Antitubercular activity against Mycobacterium tuberculosis H37Rv assessed as bacterial growth inhibition measured after […] by twofold agar dilution method; format: functional
# [8] = tested on: Mycobacterium tuberculosis; assay: Antitubercular activity against Mycobacterium tuberculosis H37Rv assessed as bacterial growth inhibition; format: functional
# [9] = tested on: Mycobacterium tuberculosis; assay: Antitubercular activity against Mycobacterium tuberculosis H37Rv ATCC 27294 assessed as bacterial growth inhibition by agar dilution method; format: functional
# [10] = tested on: Mycobacterium tuberculosis; assay: Antitubercular activity against active stage of Mycobacterium tuberculosis H37Ra ATCC 25177 assessed as bacterial growth inhibition by XTT assay; format: functional
# [11] = tested on: Mycobacterium tuberculosis; assay: Antitubercular activity against dormant stage of Mycobacterium tuberculosis H37Ra ATCC 25177 assessed as bacterial growth inhibition by XTT assay; format: functional
# [12] = tested on: Mycobacterium tuberculosis; assay: Antitubercular activity against Mycobacterium tuberculosis H37Rv assessed as reduction in relative light units at 5 ug/ml incubated for 4 hrs followed by addition of D-luciferin by luciferase based luminometer analysis relative to control; format: functional; set-up: scale not given: the % may be the effect or the level left; settings: dose 5 µg/ml
# [13] = tested on: Mycobacterium tuberculosis; assay: Antitubercular activity against Mycobacterium tuberculosis H37Rv assessed as reduction in relative light units at 25 ug/ml incubated for 4 hrs followed by addition of D-luciferin by luciferase based luminometer analysis relative to control; format: functional; set-up: scale not given: the % may be the effect or the level left; settings: dose 25 µg/ml
# [14] = tested on: Mycobacterium tuberculosis; assay: Antitubercular activity against Mycobacterium tuberculosis H37Rv assessed as bacterial growth inhibition at 6.25 ug/ml measured after 5 to 8 days by radiometric analysis relative to control; format: functional; set-up: scale not given: the % may be the effect or the level left; settings: dose 6.25 µg/ml; time 5-8 day
# [15] = tested on: Mycobacterium tuberculosis; assay: Antitubercular activity against Mycobacterium tuberculosis H37Rv ATCC 27294 assessed as bacterial growth inhibition; format: functional
# [16] = Cytotoxicity against CHO cells assessed as cell growth inhibition by MTT assay; format: toxicity, cell-based, Cricetulus griseus; settings: chinese hamster
# [17] = tested on: Mycobacterium tuberculosis; assay: Antitubercular activity against Mycobacterium tuberculosis H37Rv assessed as bacterial growth inhibition by direct susceptibility assay; format: functional
smiles,measurement,setting,value
CC(C)=CCC/C(C)=C/COc1ccc(/C=C/c2nnc3c4ccccc4cnn23)cc1,MIC,[1],0.5 µg/mL
O=[N+]([O-])c1ncn(CCCCNS(=O)(=O)c2ccc(Cl)s2)n1,MIC,[2],3.13 µM
O=[N+]([O-])c1ncn(CCCCNS(=O)(=O)c2cc(Cl)c(Cl)s2)n1,MIC,[2],1.56 µM
C[C@]1(COc2ccc(-n3cc(COc4ccc(OC(F)(F)F)cc4)nn3)cc2)Cn2cc([N+](=O)[O-])nc2O1,MIC,[3],0.23 µM
COc1ccc(-n2cc(Cn3nc(-c4ccccc4)c4c3CCN(C(=O)Nc3ccccc3)C4)nn2)cc1,MIC,[4],24.7 µM
same,MIC,[5],24.7 µM
same,MIC,[6],24.7 µM
O=C1CC2CN(c3ccc(N4C[C@H](Cn5ccnn5)OC4=O)cc3F)CC2C1 (stereo not given in full),MIC,[7],0.5 µg/mL
O=C1Nc2ccccc2/C1=N\OCc1cn(Cc2ccc(Cl)cc2)nn1,MIC,[8],1.56 µg/mL
CC1(C)OC2C3OC(C)(C)O[C@H]3C(Cn3cc(N4C(=O)CCCC4=O)nn3)O[C@@H]2O1 (stereo not given in full),MIC,[9],3.12 µg/mL
Nc1ccc(-c2n[nH]c(=S)[nH]2)cc1,MIC,[10],> 30 µg/mL
same,MIC,[11],0.46 µg/mL
O=C1Nc2ccccc2/C1=N\OCc1cn(Cc2ccc(F)cc2)nn1,MIC,[8],0.78 µg/mL
CCCCCCc1cn(CCCC2C3CC4CC(C3)CC2C4)nn1.Cl (stereo not given),MIC,[8],6.2 µg/mL
c1ccc(-c2cn(Cc3ccc4ccccc4n3)nn2)cc1,Activity,[12],58.2%
same,Activity,[13],80.79%
Cc1nc2ccccc2n2c(-c3ccc([N+](=O)[O-])cc3)nnc12,Activity,[14],2%
COc1ccc(-c2nnc3c(C)nc4ccccc4n23)cc1,Activity,[14],2%
CCOC(=O)c1c(-n2cc(-c3ccc4cc(OC)ccc4c3)nn2)c2ccccc2n(C)c1=O,MIC,[15],3.13 µg/mL
O=C(N/N=C/c1cc(Cl)cc(Cl)c1OCc1cn(-c2ccccc2Cl)nn1)c1ccncc1,MIC,[8],1.56 µg/mL
O=C1Nc2ccccc2/C1=N\OCc1cn(Cc2cccc(C(F)(F)F)c2)nn1,MIC,[8],3.12 µg/mL
COc1c(N2CCN(C(=O)Cn3cc(CN4C(=O)C(=O)c5cc(C)ccc54)nn3)C(C)C2)c(F)cc2c(=O)c(C(=O)O)cn(C3CC3)c12 (stereo not given),CC50,[16],64 µg/mL
same,MIC,[17],1 µg/mL
Cc1nc2ccccc2n2c(-c3ccc(Cl)cc3)nnc12,Activity,[14],2%
O=[N+]([O-])c1ccc(-c2n[nH]c(=S)[nH]2)cc1,MIC,[10],9.05 µg/mL
same,MIC,[11],0.64 µg/mL
Brc1ccc(/C=C/c2nnc3c4ccccc4cnn23)cc1,MIC,[1],0.5 µg/mL
CCCCCc1ccc(-c2cn(-c3c(C(=O)OCC)c(=O)n(C)c4ccccc34)nn2)cc1,MIC,[15],3.13 µg/mL
O=C1Nc2ccccc2/C1=N\OCc1cn(Cc2ccc(C(F)(F)F)cc2)nn1,MIC,[8],1.56 µg/mL
C#Cc1nnc2c3ccccc3cnn12,MIC,[1],0.5 µg/mL
